These results are taken from ChEMBL document CHEMBL1649266, “Emergence of an Enterobacter hormaechei strain with reduced susceptibility to tigecycline under tigecycline therapy” (2009).

Format in all cases: functional
Assay [1] concerns Enterobacter hormaechei. The experiment in a line: Antibacterial activity against Enterobacter hormaechei isolate UCN62.
Assay [2] deals with Enterobacter hormaechei. The experiment in a line: Antibacterial activity against Enterobacter hormaechei isolate UCN63 after 3 weeks of treatment.
Assay [3] relates to Enterobacter cloacae. The experiment in a line: Antibacterial activity against Enterobacter cloacae UCN62 by broth microdilution method.
Assay [4] relates to Enterobacter cloacae. As to the kind of experiment: Antibacterial activity against Enterobacter cloacae UCN63 by broth microdilution method after 3 weeks of treatment. Particulars: UCN63, 504 h. A general note: Dilution methods test growth across graded concentrations, often in twofold steps.
The subject of assay [5] is Enterobacter cloacae. The experiment in a line: Antibacterial activity against Enterobacter cloacae UCN62 by Etest.
Assay [6] relates to Enterobacter cloacae. As to the kind of experiment: Antibacterial activity against Enterobacter cloacae UCN63 by Etest after 3 weeks of treatment. Particulars: UCN63, 504 h.

In brackets after ≈: the same amount, converted by molar mass.

In general, MIC refers to the least concentration at which growth counts as inhibited.

In the case of `NCC[C@H](O)C(=O)N[C@@H]1C[C@H](N)[C@@H](O[C@H]2O[C@H](CN)[C@@H](O)[C@H](O)[C@H]2O)[C@H](O)[C@H]1O[C@H]1O[C@H](CO)[C@@H](O)[C@H](N)[C@H]1O` [AMIKACIN], the MIC with Enterobacter hormaechei [1] was 4 µg/mL (≈ 6.83 µM); with Enterobacter hormaechei [2] (isolate UCN63, 504 h) it was 8 µg/mL (≈ 13.7 µM).
On the same counts, the results for `CO/N=C(\C(=O)N[C@@H]1C(=O)N2C(C(=O)O)=C(COC(C)=O)CS[C@H]12)c1csc(N)n1` [CEFOTAXIME] are more than 64 µg/mL and more than 64 µg/mL.
With `O=C(O)c1cn(C2CC2)c2cc(N3CCNCC3)c(F)cc2c1=O` [CIPROFLOXACIN], the MIC was more than 16 µg/mL in the assay with Enterobacter hormaechei [1] and more than 16 µg/mL against Enterobacter hormaechei [2] (isolate UCN63, 504 h).
On to `C[C@@H](O)[C@H]1C(=O)N2C(C(=O)O)=C(SCCNC=N)C[C@H]12` [IMIPENEM ANHYDROUS], for which the minimum inhibitory concentration (MIC) came out at 1 µg/mL (≈ 3.34 µM) in the assay on Enterobacter hormaechei [1] and 1 µg/mL (≈ 3.34 µM) against Enterobacter hormaechei [2] (isolate UCN63, 504 h).
As to `CN(C)c1cc(NC(=O)CNC(C)(C)C)c(O)c2c1C[C@H]1C[C@H]3[C@H](N(C)C)C(O)=C(C(N)=O)C(=O)[C@@]3(O)C(O)=C1C2=O` [TIGECYCLINE], the MIC stood at 2 µg/mL (≈ 3.41 µM) in the assay on Enterobacter cloacae [3]; 2 µg/mL (≈ 3.41 µM) against Enterobacter hormaechei [1]; 4 µg/mL (≈ 6.83 µM) against Enterobacter cloacae [4]; 4 µg/mL (≈ 6.83 µM) in the assay with Enterobacter hormaechei [2] (isolate UCN63, 504 h); 1 µg/mL (≈ 1.71 µM) in the assay with Enterobacter cloacae [5]; 3 µg/mL (≈ 5.12 µM) against Enterobacter cloacae [6].
As to GENTAMICIN, the minimal inhibitory concentration (MIC) with Enterobacter hormaechei [1] and with Enterobacter hormaechei [2] was more than 32 µg/mL in each case.
